Data published in the supplement of paper PMC10307832.

compound: C1CSC2=C(C(=O)N1)SC3=C2C=C(C=C3)O [kb NB 142-70] + COc1cccc2cc(-c3nc([C@H]4CC[C@H](C(=O)O)CC4)n4ncnc(N)c34)[nH]c12 [OSI-027] (partner 0.5 µM); test: relative viability (nuclei count vs DMSO), 5 days (fraction); higher = more cells survive; settings: first compound 0.1 µM
Outline: (§1)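 After 5 days of treatment, lung cancer cells in 1536-well plates were fixed and stained in a single step (final 0.05% Triton X-100, 1% formaldehyde, 1 ug/ml Hoechst) and their nuclei counted on 4× images. Treatment had been applied by pin tool the day after seeding as one drug alone or as a fixed anchor-drug dose with five library-drug doses (not always all listed) in √10 steps. Relative viability is the nuclei count of treated wells divided by that of vehicle wells, and values are medians of duplicate plates.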

Cell Line | relative viability
NCI-H2342 | 0.649
NCI-H1623 | 0.399
NCI-H727 | 0.716
NCI-H1650 | 0.612
NCI-H1993 | 0.51
SW 1573 | 0.618
NCI-H838 | 0.369
LCLC-103H | 0.493
NCI-H520 | 0.262
NCI-H2126 | 0.791
EMC-BAC-2 | 0.361
NCI-H2085 | 0.878
HCC-366 | 1.04
NCI-H1666 | 0.786
NCI-H596 | 0.931
LK-2 | 0.19
NCI-H2087 | 0.532
NCI-H1648 | 0.253
SK-MES-1 | 0.653
H3255 | 0.606
COR-L23 | 0.797

Cell Line | relative viability
COR-L 105 | 0.821
LOU-NH91 | 0.699
ChaGo-K-1 | 0.631
NCI-H2170 | 0.699
NCI-H2405 | 0.652
HOP-62 | 0.868
HCC-44 | 0.701
NCI-H522 | 0.737
LU99A | 0.325
BEN | 0.306
HARA | 0.57
SW 900 | 0.552
HCC-78 | 0.379
NCI-H322M | 0.489
LCLC-97TM1 | 0.635
NCI-H2009 | 0.678
A-427 | 0.524
NCI-H1395 | 0.674
NCI-H1793 | 0.34
NCI-H1944 | 0.386
NCI-H358 | 0.669

same assay, conditions: first compound 1 µM

Cell Line | relative viability
NCI-H2342 | 0.612
NCI-H1623 | 0.375
NCI-H727 | 0.583
NCI-H1650 | 0.755
NCI-H1993 | 0.578
SW 1573 | 0.47
NCI-H838 | 0.386
LCLC-103H | 0.452
NCI-H520 | 0.226
NCI-H2126 | 0.629
EMC-BAC-2 | 0.422
NCI-H2085 | 0.876
HCC-366 | 0.894
NCI-H1666 | 0.875
NCI-H596 | 0.773
LK-2 | 0.163
NCI-H2087 | 0.677
NCI-H1648 | 0.217
SK-MES-1 | 0.676
H3255 | 0.603
COR-L23 | 0.728

Cell Line | relative viability
COR-L 105 | 0.734
LOU-NH91 | 0.695
ChaGo-K-1 | 0.543
NCI-H2170 | 0.694
NCI-H2405 | 0.615
HOP-62 | 0.751
HCC-44 | 0.439
NCI-H522 | 0.658
LU99A | 0.327
BEN | 0.301
HARA | 0.479
SW 900 | 0.478
HCC-78 | 0.375
NCI-H322M | 0.551
LCLC-97TM1 | 0.407
NCI-H2009 | 0.68
A-427 | 0.469
NCI-H1395 | 0.757
NCI-H1793 | 0.311
NCI-H1944 | 0.443
NCI-H358 | 0.464

same assay, conditions: first compound 3.162 µM

Cell Line | relative viability
NCI-H2342 | 0.638
NCI-H1623 | 0.404
NCI-H727 | 0.67
NCI-H1650 | 0.483
NCI-H1993 | 0.479
SW 1573 | 0.266
NCI-H838 | 0.331
LCLC-103H | 0.454
NCI-H520 | 0.25
NCI-H2126 | 0.674
EMC-BAC-2 | 0.338
NCI-H2085 | 0.388
HCC-366 | 0.742
NCI-H1666 | 0.875
NCI-H596 | 0.509
LK-2 | 0.163
NCI-H2087 | 0.35
NCI-H1648 | 0.237
SK-MES-1 | 0.27
H3255 | 0.554
COR-L23 | 0.279

Cell Line | relative viability
COR-L 105 | 0.674
LOU-NH91 | 0.651
ChaGo-K-1 | 0.488
NCI-H2170 | 0.588
NCI-H2405 | 0.546
HOP-62 | 0.699
HCC-44 | 0.685
NCI-H522 | 0.608
LU99A | 0.317
BEN | 0.202
HARA | 0.234
SW 900 | 0.295
HCC-78 | 0.34
NCI-H322M | 0.498
LCLC-97TM1 | 0.237
NCI-H2009 | 0.395
A-427 | 0.408
NCI-H1395 | 0.638
NCI-H1793 | 0.294
NCI-H1944 | 0.426
NCI-H358 | 0.105

compound: NCC(=O)Nc1ccc(-n2nc(C(F)(F)F)cc2-c2ccc3c(ccc4ccccc43)c2)cc1 + N=C(N)NC(=N)NCCc1ccccc1 [Phenformin] (partner 250 µM); test: as above; settings: first compound 0.02 µM
Outline: as §1

Cell Line | relative viability
NCI-H2342 | 0.685
NCI-H1623 | 0.604
NCI-H727 | 0.63
NCI-H1650 | 0.426
NCI-H1993 | 0.453
SW 1573 | 0.394
NCI-H838 | 0.51
LCLC-103H | 0.344
NCI-H520 | 0.574
NCI-H2126 | 0.515
EMC-BAC-2 | 0.472
NCI-H2085 | 0.689
HCC-366 | 0.589
NCI-H1666 | 0.552
NCI-H596 | 0.72
LK-2 | 0.31
NCI-H2087 | 0.455
SK-MES-1 | 0.707
H3255 | 0.343
COR-L23 | 0.394

Cell Line | relative viability
COR-L 105 | 0.408
LOU-NH91 | 0.652
ChaGo-K-1 | 0.438
NCI-H2170 | 0.397
NCI-H2405 | 0.402
HOP-62 | 0.683
HCC-44 | 0.308
A549 | 0.0913
LU99A | 0.76
BEN | 0.249
HARA | 0.479
HCC-78 | 0.758
NCI-H322M | 0.808
LCLC-97TM1 | 0.397
NCI-H2009 | 0.459
NCI-H1395 | 0.5
NCI-H1793 | 0.258
NCI-H1944 | 0.191
NCI-H358 | 0.335

same assay, conditions: first compound 0.06325 µM

Cell Line | relative viability
NCI-H2342 | 0.582
NCI-H1623 | 0.671
NCI-H727 | 0.606
NCI-H1650 | 0.49
NCI-H1993 | 0.438
SW 1573 | 0.356
NCI-H838 | 0.661
LCLC-103H | 0.331
NCI-H520 | 0.628
NCI-H2126 | 0.559
EMC-BAC-2 | 0.488
NCI-H2085 | 0.786
HCC-366 | 0.649
NCI-H1666 | 0.566
NCI-H596 | 0.877
LK-2 | 0.638
NCI-H2087 | 0.583
SK-MES-1 | 0.705
H3255 | 0.341
COR-L23 | 0.434
COR-L 105 | 0.517

Cell Line | relative viability
LOU-NH91 | 0.748
ChaGo-K-1 | 0.495
NCI-H2170 | 0.446
NCI-H2405 | 0.399
HOP-62 | 0.7
HCC-44 | 0.252
A549 | 0.168
NCI-H522 | 0.66
LU99A | 0.877
BEN | 0.239
HARA | 0.407
SW 900 | 0.729
HCC-78 | 0.691
NCI-H322M | 0.739
LCLC-97TM1 | 0.434
NCI-H2009 | 0.503
A-427 | 0.411
NCI-H1395 | 0.422
NCI-H1793 | 0.376
NCI-H1944 | 0.233
NCI-H358 | 0.319

same assay, conditions: first compound 0.2 µM

Cell Line | relative viability
NCI-H2342 | 0.733
NCI-H1623 | 0.6
NCI-H727 | 0.561
NCI-H1993 | 0.515
SW 1573 | 0.383
NCI-H838 | 0.634
LCLC-103H | 0.332
NCI-H520 | 0.641
NCI-H2126 | 0.5
EMC-BAC-2 | 0.549
NCI-H2085 | 0.652
HCC-366 | 0.595
NCI-H1666 | 0.539
NCI-H596 | 0.841
LK-2 | 0.425
NCI-H2087 | 0.441
SK-MES-1 | 0.662
H3255 | 0.364
COR-L23 | 0.439
COR-L 105 | 0.5
LOU-NH91 | 0.686

Cell Line | relative viability
ChaGo-K-1 | 0.443
NCI-H2170 | 0.429
NCI-H2405 | 0.416
HOP-62 | 0.644
HCC-44 | 0.25
A549 | 0.0781
NCI-H522 | 0.585
LU99A | 0.908
BEN | 0.302
HARA | 0.456
SW 900 | 0.599
HCC-78 | 0.713
NCI-H322M | 0.766
LCLC-97TM1 | 0.466
NCI-H2009 | 0.482
A-427 | 0.315
NCI-H1395 | 0.434
NCI-H1793 | 0.412
NCI-H1944 | 0.204
NCI-H358 | 0.293

same assay, conditions: first compound 0.6325 µM

Cell Line | relative viability
NCI-H2342 | 0.515
NCI-H1623 | 0.577
NCI-H727 | 0.41
NCI-H1650 | 0.515
NCI-H1993 | 0.493
SW 1573 | 0.401
NCI-H838 | 0.548
LCLC-103H | 0.327
NCI-H520 | 0.625
NCI-H2126 | 0.518
EMC-BAC-2 | 0.56
NCI-H2085 | 0.702
HCC-366 | 0.625
NCI-H1666 | 0.586
NCI-H596 | 0.721
LK-2 | 0.496
NCI-H2087 | 0.48
SK-MES-1 | 0.666
H3255 | 0.334
COR-L23 | 0.44
COR-L 105 | 0.539

Cell Line | relative viability
LOU-NH91 | 0.671
ChaGo-K-1 | 0.522
NCI-H2170 | 0.438
NCI-H2405 | 0.38
HOP-62 | 0.608
HCC-44 | 0.202
A549 | 0.198
NCI-H522 | 0.664
LU99A | 0.824
BEN | 0.269
HARA | 0.441
SW 900 | 0.587
HCC-78 | 0.649
NCI-H322M | 0.747
LCLC-97TM1 | 0.442
NCI-H2009 | 0.479
A-427 | 0.334
NCI-H1395 | 0.469
NCI-H1793 | 0.392
NCI-H1944 | 0.201
NCI-H358 | 0.365

same assay, conditions: first compound 2 µM

Cell Line | relative viability
NCI-H2342 | 0.537
NCI-H1623 | 0.555
NCI-H727 | 0.728
NCI-H1650 | 0.449
NCI-H1993 | 0.5
SW 1573 | 0.366
NCI-H838 | 0.497
LCLC-103H | 0.315
NCI-H520 | 0.618
NCI-H2126 | 0.539
EMC-BAC-2 | 0.541
NCI-H2085 | 0.72
HCC-366 | 0.596
NCI-H1666 | 0.579
NCI-H596 | 0.728
LK-2 | 0.435
NCI-H2087 | 0.47
SK-MES-1 | 0.704
H3255 | 0.435
COR-L23 | 0.417
COR-L 105 | 0.492
LOU-NH91 | 0.778
ChaGo-K-1 | 0.519
NCI-H2170 | 0.457
NCI-H2405 | 0.475
HOP-62 | 0.735
